Assay [1] concerns osteoclast differentiation. The assay can be described thus: Inhibitory effects on osteoclast differentiation, co-culture of bone marrow cells and osteoblast, TRAP staining (Example 1). The format is cell-based, mice. The following applies: 7-day co-culture; for inhibition at 0.0032 µM / inhibition at 0.016 µM / inhibition at 0.08 µM / inhibition at 0.4 µM / IC50: Mus musculus, Osteoclast, 168 h; for inhibition at 0.0032 µM / inhibition at 0.016 µM / inhibition at 0.08 µM / inhibition at 0.4 µM: read-out: % inhibitory action. How it is done:
The effects of each test substance on osteoclast proliferation and differentiation process were evaluated via co-culture with osteoblast.
Tibia and Femora were aseptically ectomized from male ddY mice of 6-8 weeks to harvest bone marrow cells by using a syringe (21 G, Korea Green Cross).
The bone marrow cells were suspended in 5 mL α-MEM medium (Gibco BRL Co.) containing sodium bicarbonate (2.0 g/L), streptomycin (100 mg/L) and penicillin ([…]). The harvested cells were centrifuged at 800×g for 5 minutes to collect the whole quantity. To remove the red blood cells within bone marrow cells, 3 mL of Tris HCl (0.83% NH4Cl, pH7.5) was added and well mixed. After centrifuging the above cells, the numbers of bone marrow cells were counted and then the bone marrow cells were immediately used for a co-culture system with osteoblast.
The calvaria were aseptically ectomized from neonate ICR mice of 1-2 days, washed with PBS solution and incubated with a mixture of enzyme solutions (0.2% collagenase and 0.1% dispase) at 37° C. gentle shaker. This procedure was sequentially repeated (10, 10, 10, 20, 20 and 20 minutes), and then the calvaria cells having the characteristics of osteoblast, were mostly released from III˜VI digestion groups, were collected and washed with the medium (serum-free α-MEM). The washed cells were cultivated in α-MEM medium containing 10% FBS for 2-3 days. After subculturing, these cells were used for this experiment, and diluted to reach the concentration of 1×10^6 cells/mL for storage at −70° C.
The volume of final specimen added to the medium was determined at the ratio of 1:1000.
Bone marrow cells, so prepared from the above No. 1, and osteoblast from calvaria were co-cultured for osteoclast differentiation. Both bone marrow cells (25,000 cells/cm^2) and osteoblast (10,000 cells/cm^2) were plated on a 96 well plate in α-MEM medium containing 10% FBS with the specimen, and then the reaction mixture was cultured for 7 days. Some differentiation factors, such as dexamethasone (10^−6M) and vitamin D3(10^−9M), were also continuously added to the medium from the first day of cultivation. The media were changed with fresh media containing a mixture of specimens and differentiation factors every 2-3 day.
TRAP was used as a marker to measure osteoclast in consideration of its characteristics showing a positive reaction to TRAP staining solution. TRAP staining solution was prepared in a manner such that 5 mg of naphtol AS-MS phosphate (sigma N-4875), a substrate and 25 mg of coloring agent (Fast Red Violet LB salt) were dissolved in N,N-dimethylformamide (about 0.5 mL) and with the addition of 0.1N NaHCO3 buffer solution (50 mL) containing 50 mM of tartaric acid. The reaction mixture was stored in a refrigerator prior to use.
After a 7-day culture, the medium was removed from the wells and then the cells were washed once with PBS solution and fixed to PBS containing 10% formalin for 2-5 minutes. The cells were also fixed in a mixed solution, ethanol and acetone (1/1), for about 1 minute, and dried off. The cells were further treated by TRAP staining solution for 15 minutes and washed with PBS to measure the experimental results with the staining degree of cells under a microscopic examination.
The counts of osteoclast only with more than 3 nuclei showing the TRAP-positive reaction were calculated under a microscopic examination, and each test was reconfirmed over three times to insure more reliable data.
As shown in the following table 1, the inhibitory effect of each experimental group on the differentiation of osteoclast versus controls were expressed by inhibitory percentage value, and 50% inhibitory concentration on osteoclast differentiation was calculated as IC50.

For the next assay, the system named is MC3T3-E1 cells. The assay can be described thus: Alkaline phosphatase (ALP) activity to measure osteoblast activity (Example 4). The format is cell-based. To be noted: 10^−8M; two weeks culture. How it is done:
This experiment is designed to evaluate the differentiation and activity of osteoblast via ALP activity having a close relationship with osteoblastic bone formation (Y. Wada et al., Bone, 22,479-485, 1998).
MC3T3-E1 cells (3,000 cells/well) derived from osteoblast were placed on a 96 well plate and after 24-hour culture the media were changed with fresh medium containing various differentiation factors such as ascorbic acid (100 ug/ml) and β-glycerophosphatic acid (5 mM). The medium was also treated with test substances and the medium, containing differentiation factors and the specimen, was changed with a fresh medium every 3 days.
The culture was terminated after two weeks to measure ALP activity. With the removal of the supernatant, 0.5% Triton X-100 were added for the lysis of cells. 100 ul of p-nitrophenylphosphate (1.21 mM) was added to 50 ul of above mixture. The mixture was incubated at 37° C. for 30 mins and with the addition of 0.2N sodium hydroxide (50 ul), the reaction was terminated. The standard curve was indicated at the absorbance of 405 nm using p-nitrophenol as a standard material and then the absorbance of test substances, so reacted, was measured to observe the production amount of p-nitrophenol.
As shown in the following table 4, the units of ALP activity were determined as the amount of p-nitrophenol (nM) produced per time (per min or hour)/1 ug protein after measuring the amounts of protein contained in the reaction mixture of each test substance.

As usually defined, the IC50 is the concentration needed to halve the response being measured. Low readings indicate higher potency, high ones lower potency.

Turning to “4-[5-[4-(aminoiminomethyl)phenoxy]pentoxy]-3-methoxy-N,N-bis(1-methylethyl)benzamide maleic acid [CGS-25019C]”, the “% inhibitory action” value is −8.9% in assay [1] (3.2 nM), 8.3% in assay [1] (16 nM), 0.0% in assay [1] (80 nM) and 17.7% in assay [1] (400 nM). For the same compound, the “ALP activity (units)” value in the assay on MC3T3-E1 cells is 15.0 units.

For the compound `Cc1nc(-c2ccc(OCCCCCOc3ccc(C(=N)NO)cc3)cc2)c(C(C)C)s1` [DW1350, N-hydroxy-4-{5-[4-(5-isopropyl-2-methyl-1,3-thiazol-4-yl)phenoxy]pentoxy}-benzamidine], in assay [1] (3.2 nM), the inhibition at 0.0032 µM was found to be 1%. For the same compound, in assay [1] (16 nM), the inhibition at 0.016 µM turned out to be 68.8%. Moreover, the inhibition at 0.08 µM in assay [1] (80 nM) came to 82.3%. For the same compound, the inhibition at 0.4 µM in assay [1] (400 nM) came to 88%. Besides, the IC50 in assay [1] came out at 19.9 nM. The “ALP activity (units)” value with MC3T3-E1 cells is 19.8 units.

Regarding `Cc1nc(-c2ccc(OCCCCCOc3ccc(C(=N)N)cc3)cc2)c(C(C)C)s1` [DW1352, 4-{5-[4-(5-isopropyl-2-methyl-1,3-thiazol-4-yl)phenoxy]pentoxy}-benzamidine], the inhibition at 0.0032 µM in assay [1] (3.2 nM) was determined as 50%. Also, the inhibition at 0.016 µM in assay [1] (16 nM) was 81.8%. Moreover, the inhibition at 0.08 µM in assay [1] (80 nM) stood at 83.9%. The inhibition at 0.4 µM in assay [1] (400 nM) was found to be 92.7%. The compound further showed an IC50 in assay [1] of 1.25 nM. Besides, the “ALP activity (units)” value in the assay on MC3T3-E1 cells is listed as 17.1 units.

On to `COc1cc(C(=O)N(C(C)C)C(C)C)ccc1OCCCCOc1ccc2c(N)noc2c1` [HS1141, N,N-diisopropyl-4-[4-(3-aminobenzo[d]isooxazole-6-yloxy)butoxy]-3-methoxybenzamide], for which, in assay [1] (3.2 nM), the inhibition at 0.0032 µM stood at 1.2%. Also, in assay [1] (16 nM), the inhibition at 0.016 µM is 3%. For the same compound, in assay [1] (80 nM), the inhibition at 0.08 µM is 12%. Also, in assay [1] (400 nM), the inhibition at 0.4 µM amounted to 23.5%. For the same compound, in the assay on MC3T3-E1 cells, the “ALP activity (units)” value came to 15.2 units.

These data come from patent publication US8242152B2, “Use of 4-[(4-thiazolyl)phenoxy]alkoxy-benzamidine derivatives for the prophylaxis and treatment of osteoporosis” (Dong Wha Pharmaceutical Co., Ltd., priority 2001, dated 2012).
